Measurements reported in patent US11746094B2, “Small molecule photosensitizers for photodynamic therapy” (The University Court of the University of Edinburgh, priority 2019, dated 2023).

Key:
[1] = Singlet oxygen generation (DPBF absorption, 520 nm laser); type: physicochemical; conditions: for Singlet oxygen quantum yield (%): DPBF 40 μM in EtOH, 520 nm laser 0.3 mW
[2] = tested on: U87-mCrimson glioblastoma cells; test: U87-mCrimson glioblastoma transplant in zebrafish embryos, 520 nm irradiation; type: in vivo; conditions: compound injected, then 520 nm light
Experimental: Briefly, U87-mCrimson glioblastoma cells were injected into the yolk sac of zebrafish embryos. Cells were effectively transplanted as shown by fluorescence microscopy images. Zebrafish were then irradiated with 520 nm light alone or injected with PS-SCOTfluor-13 and then irradiated with 520 nm light.

[3] = tested on: U87 glioblastoma cells; test: Phototoxicity assay in U87 glioblastoma cells, Annexin V-Pacific Blue staining (fluorescence microscopy, flow cytometry); type: cell-based
Experimental: Compound was administered at 100 μM and illuminated under 520 nm light. Annexin V-Pacific Blue was used as a stain for dead cells. Red fluorescence was used to confirm uptake of PS-SCOTfluor-13 into cells.
Phototoxicity assays of PS-SCOTfluor-13 and 2-NBDG in U87 glioblastoma cells were determined. Compounds administered at 100 μM and illuminated under 520 nm light. Annexin V-Pacific Blue was used as a stain for dead cells. Red fluorescence (for PS-SCOTfluor-13) and green fluorescence (for 2-NBDG) was used to confirm uptake of the compounds into cells.

[4] = 100 μM, illuminated under 520 nm light

Compound	Singlet oxygen quantum yield (%) [1]	Cell death as detected by Annexin V staining (fluorescence microscopy) [3, 4]	further results
CCN(CC)c1cc(I)c([N+](=O)[O-])c2n[se]nc12 [PS-SCOTfluor-6, N,N-diethyl-6-iodo-7-nitrobenzo[c][1,2,5]selenadiazol-4-amine]	5%		
NC(CNc1ccc([N+](=O)[O-])c2n[se]nc12)C(=O)O (stereo not drawn) [PS-SCOTfluor-19, 2-amino-3-((7-nitrobenzo[c][1,2,5]selenadiazol-4-yl)amino)propanoic acid]	10%		
O=[N+]([O-])c1ccc(N[C@@H]2[C@@H](O)[C@H](O)[C@@H](CO)O[C@H]2O)c2nsnc12 [PS-SCOTfluor-13, (2R,3R,4R,5S,6R)-6-(hydroxymethyl)-3-((7-nitrobenzo[c][1,2,5]thiadiazol-4-yl)amino)tetrahydro-2H-pyran-2,4,5-triol]	24%	kills U87 glioblastoma cells only after irradiation with light	Glioblastoma transplant (fluorescence of mCrimson reporter) [2]: reduction of the glioblastoma transplant; Cell death as detected by Annexin V staining (flow cytometry) [3, 4]: kills U87 glioblastoma cells only after irradiation with light but not without light; Effect of excess unlabelled glucose on uptake and cell death ([3]; competition with excess unlabelled glucose, Annexin V staining): reduces the uptake of PS-SCOTfluor-13 and subsequently cell death; Activity as photosensitizer (summary of Table 1) [1]: high activity as photosensitizer
CCN(CC)c1ccc([N+](=O)[O-])c2n[se]nc12 [PS-SCOTfluor-5, N,N-diethyl-7-nitrobenzo[c][1,2,5]selenadiazol-4-amine]	3%		
O=[N+]([O-])c1ccc(N[C@H]2C(O)O[C@H](CO)[C@@H](O)[C@@H]2O)c2nonc12 (stereo partly drawn) [2-NBDG, reference compound]	<1%	does not kill the cells after illumination	Uptake into U87 glioblastoma cells (fluorescence) ([3]; 100 μM): uptaken by U87 glioblastoma cells
